Results taken from publication PMC7272100 (PLoS ONE, 2020).

How the values were obtained:
[1] = Stability of peptides in cells (inferred from WST-1 assay); conditions: deduced from WST-1 results after 48 hours of incubation
[2] = system: MDM2 N- terminal domain (2–125); conditions: ref [52]; cited from earlier work
Text: (§1) With a helix–loop–helix pattern, these proteins are site-specific and form homo and heterodimers. These proteins interact with copper, zinc, and calcium ions, and calcium-binding facilitates a variety of extracellular and intracellular governing consequences of these proteins. […] Further, it was also found to connect with the p53 tetrameriza ...

[3] = system: phosphorylated p53 N-terminus; conditions: single-site phosphorylation, fluorescence anisotropy; ref [51]; cited from earlier work
Text: as §1

[4] = system: p53 tetramerization domain (residues, 325–355); conditions: ref [49]; cited from earlier work
Text: as §1

[5] = system: p53 transactivation domain (residues, 1–57); conditions: fluorescence anisotropy; ref [50]; cited from earlier work
Text: as §1

[6] = system: C-terminal domain (residues, 293–393); conditions: monomeric fragment versus tetrameric form; ref [50]; cited from earlier work
Text: as §1

[7] = system: p53 peptide (residues, 367–393); conditions: ref [49]; cited from earlier work
Text: as §1

[8] = HIV-TAT alone; ref [79]; cited from earlier work
Text: [79] […] The (LLKK)3 imparts an amphiphilic α-helical conformation to the peptide that disrupts the cellular membranes. […] [81] Altogether it can be inferred that the TAT sequence has a very minimal effect to the confirmation of the conjugated partner under consideratio ...

[9] = ref [77]; cited from earlier work
Text: We selected residues from 76 to 92 (17 residues) for our peptide construction.

[10] = system: various cell lines including MCF-7; set-up: method as in PMID 19914216; conditions: ref [85], cited from earlier work
HeLa cells = conditions: N-terminal fluorescein tagged, even after five hours; ref [86]; cited from earlier work
Text: [86] […] [85] […] [ ...

MDM2 (17–125) = conditions: p53 (1–73), besides helix region (18–26); ref [70]; cited from earlier work
MDM2-p53 complex = experiment: HSQC-NMR competitive binding experiment; set-up: species or system human; conditions: unlabeled p53 added to 15N-labeled MDM2, 1:1, pH 7.2
Procedure: HSQC- NMR competitive binding experiment
All the experiments were carried out in the NMR buffer containing 20 mM Tris-HCl, 15 mM NaCl, 20 mM CaCl2, 20 mM DTT, 0.1% NaN3, and 10% D2O; pH 7.2.

[11] = target: T1, p53-TAD (residues 1-73), N-terminal domain of p53 (UniProt P04637 1-73); experiment: other fluorescence titration; tryptophan fluorescence of p53 (1-73), excitation 295 nm; Peptide 1 0 to 12.0 uM added to 2 uM p53; 20 mM Tris-HCl, 15 mM NaCl, 20 mM CaCl2, 20 mM DTT, 0.1% NaN3, pH 7.2; conditions: both partners purified
T1 construct: cleaved protein of 8.6 kDa; plasmid a gift of G. Daughdrill; Used unlabelled or 15N-labelled; also called p53 (1-73); p53 N-terminal domain; source: bacterial cells in M9 media, purified (Ni-NTA, thrombin digestion, Superdex 75)
T1 sequence (P04637 1-73): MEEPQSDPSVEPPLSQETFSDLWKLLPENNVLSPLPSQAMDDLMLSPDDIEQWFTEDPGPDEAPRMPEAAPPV

For `CC(C)C[C@H](NC(=O)[C@H](C)NC(=O)[C@H](C)NC(=O)[C@@H](NC(=O)[C@H](CC(C)C)NC(=O)[C@@H](NC(=O)[C@@H](NC(=O)[C@H](CCCNC(=N)N)NC(=O)[C@H](CCCNC(=N)N)NC(=O)[C@H](CCCNC(=N)N)NC(=O)[C@H](CCC(N)=O)NC(=O)[C@H](CCCNC(=N)N)NC(=O)[C@H](CCCNC(=N)N)NC(=O)[C@H](CCCCN)NC(=O)[C@H](CCCCN)NC(=O)[C@H](CCCNC(=N)N)NC(=O)CNC(=O)[C@@H](N)Cc1ccc(O)cc1)C(C)C)C(C)C)C(C)C)C(=O)N[C@H](C(=O)N[C@H](C(=O)N[C@@H](C)C(=O)N[C@@H](CS)C(=O)N[C@@H](CC(N)=O)C(=O)N[C@@H](CC(N)=O)C(=O)N[C@@H](Cc1ccccc1)C(=O)N[C@@H](Cc1ccccc1)C(=O)N[C@@H](Cc1c[nH]c2ccccc12)C(=O)N[C@@H](CCC(=O)O)C(=O)O)C(C)C)[C@@H](C)O` [Peptide 1], the stability in cells [1] was “quite stable”.

In the case of “S100A1: human S100A1 protein produced in BL21 (DE3) E. coli [Peptide S100A1]”, the “association with MDM2 N-terminal domain (2–125)” value [2] is listed as “found to associate with the MDM2 N- terminal domain (2–125) and does not lead to the formation of a ternary complex with MDM2 and p53”, the “affinity of phosphorylated p53 N-terminus for S100A1” value [3] is listed as “increased affinity for S100A1” and the “interaction with p53 TET domain (325–355)” value [4] is listed as “only interacted with the TET domain when its oligomerization state was lowered (monomers or dimers)”. For the same molecule, the “binding to p53 transactivation domain (1–57)” value [5] was “binding of S100A1 to the p53 transactivation domain (residues, 1–57)”, the “binding to p53 C-terminal domain (293–393)” value [6] was “could bind to the monomeric fragment of the C-terminal domain (residues, 293–393) but unable to form a complex with the tetrameric form” and the “association with p53 peptide (367–393)” value [7] was “found to associate with the p53 peptide (residues, 367–393)”.

In the case of YGRKKRRQRRR [TAT peptide], the “conformation by CD spectrum” value [8] is given as “unstructured form”, the “delivery of heterologous proteins” value [9] is given as “cytoplasmic delivery of heterologous proteins which was independent of the cell type” and the “cytotoxicity of TAT peptide, above 5 μM” value ([10]; above 5 μM) is given as 11–22%. For the same molecule, the “cytotoxicity of TAT peptide, up to 5 μM” value ([10]; up to 5 μM) was “non-toxic” and the “stability of TAT peptide (cytoplasmic fluorescence)” value (HeLa cells) was “quite stable”.

For p53 (1–73): p53-TAD (residues, 1–73), the “p53 regions able to bind to MDM2” value (MDM2 (17–125)) is given as “nascent turns 1 (40–45) and 2 (49–54) are furthermore able to bind to MDM2” and the “effect on 15N labeled MDM2 HSQC peaks” value (MDM2-p53 complex) is given as “several ^15N labeled MDM2 peaks were shifted and/or disappeared”.

B1: Peptide 1 (HIV-TAT + S100A1 derived peptide) (peptide)
peptide: YGRKKRRQRRRVVLVAALTVACNNFFWE
notes: HIV-TAT cell-penetrating segment derived from the TAT protein of human immunodeficiency virus; S100A1, human, C-terminal residues 76 to 92 (17 residues); 28 residues; the TAT segment stands N-terminal of the S100A1 stretch; also called fusion peptide; source: synthetic peptide, bought: Kelowna International Scientific Inc., >= 95% purity
For B1, the Kd [11] was ~590 nM.
